Experimental data: US20100048498A1, “STABLE NON-DIHYDRATE AZITHROMYCIN ORAL SUSPENSIONS” (priority 2004, published 2010)

Experiments:
Type in all cases: physicochemical
[1] = Stability of azithromycin form G in suspensions prepared from POS formulations I, II and III; settings: 18 mls water, 30° C.
Procedure: These POS formulations were created by individually weighing each formulation component into a 60-cc High Density Polyethylene (HDPE) bottle with closure. The resulting formulations were then dry-mixed with a Turbula blender (Glen Mills Inc. Maywood, NJ) for 5 minutes. The powder blends were then constituted with 18 mls of water, shaken for 30 seconds and stored without agitation under controlled temperature conditions.
Upon conclusion of the storage time period the POS samples were filtered using a Buchner funnel in combination with a standard vacuum filtration apparatus. A Millipore prefilter (AP25, 47 mm) was fitted onto the funnel for the collection of suspended solids. Before filtering, the constituted POS sample was poured into a 200 ml volumetric flask and diluted to 200 ml with water. This lowered the viscosity of the sample, facilitating a quick filtration step. With the vacuum on, the diluted POS samples were poured onto the Millipore prefilter. The isolated filtrate remaining on top of the prefilter was then allowed to stand for 2-minutes in order to dry. Vacuum was applied to the filtration apparatus during this drying step. Suspensions containing only bulk drug were transferred directly onto the filter paper upon completion of storage, without the described dilution step during sample preparation. After drying, the collected filtrate was placed into 4 cc Sunbroker vials and analyzed via Solid-State Nuclear Magnetic Resonance (SS-NMR) for quantification of conversion to azithromycin dihydrate (form A).
Approximately 300 mg of sample were tightly packed into a 7 mm ZrO spinner for each sample analyzed. One-dimensional ^13C spectra were collected at ambient pressure using ^1H-^13C cross-polarization magic angle spinning (CPMAS) at 295 K on a Bruker 7 mm BL CPMAS probe positioned into a wide-bore Bruker Avance DSX 500 MHz NMR spectrometer (Bruker BioSpin Corporation; Billerica, Mass.). The samples were spun at 7000 Hz corresponding to the maximum specified spinning speed for the 7 mm spinners. The fast spinning speed minimized the intensities of the spinning side bands. To optimize the signal sensitivity, the cross-polarization contact time was adjusted to 2.3 ms and the decoupling power was set to 65 kHz. Typically, a total of 600 scans were acquired, resulting in approximately a 30 minute acquisition time. The spectra were referenced using an external sample of adamantane with its most upfield resonance set to 29.5 ppm.
Eight pairs of resolved peaks were identified to calibrate ratios of form A in the presence of form G, N, M or F. Integral intensities of all peaks were used as input for the calibration procedure using five different binary mixtures ranging from 3 to 81% of form A with each non-dihydrate form. From this, one non-linear calibration graph was generated for each pair of peaks and each form. For the experimental samples, only the peaks that were totally void from excipient overlap were preferentially integrated. The unknown percentages of form A were then determined from the appropriate calibration graphs. The final result for each sample analyzed was calculated as a weighted average of the determinations from each resolved peak pair.
The stability of form G azithromycin was also evaluated for suspensions prepared from POS formulations I, II and III. The form G bulk drug substance contained <1% by weight of form A prior to formulation and constitution. These suspensions were constituted with 18 mls of water and stored for 1 and 10 days at 30° C.

[2] = Effect of individual flavorings and sucrose on conversion of azithromycin form G to form A in pH 8.16 buffer; parameters: key: AC means all converted to form A; settings: 18 mls pH 8.16 buffer, room temperature
Procedure: To evaluate a proposed excipient, the active dose of the azithromycin was suspended with the desired amount of potential excipient in a 0.1 M phosphate buffer system adjusted to a pH of 8.16. The buffer system was created by dissolving 13.738 g of NaH2PO4.H2O in 900 ml of water, adjusting the pH to 8.16 with sodium hydroxide, and diluting the solution to 1 liter with water. The sample, once constituted with buffer, was then stored at room temperature for the desired constituted product shelf-life. The azithromycin product was then isolated through filtration, and the resulting solid filtrate analyzed by a Solid-State Nuclear Magnetic Resonance method described previously that allows for quantitation of the dihydrate form present.
The effect of various individual flavoring components and of sucrose upon conversion of azithromycin form G to azithromycin dihydrate (form A), in suspensions, were evaluated as follows.
An 820 mg dose of form G azithromycin was weighed and mixed with 200 mg of each flavoring or sucrose. The mass of each flavoring, used in this test, was chosen to match that of the anticipated required amount for effective flavoring in the constituted POS. In this example, five flavorings, specifically artificial crème de vanilla, B&C banana, Trusil banana, Trusil cherry and artificial grape were investigated in addition to sucrose. Each of the binary samples were then constituted with 18 mls of pH=8.16 buffer and stored for 1, 5 and 10-days at room temperature.
A control suspension of azithromycin form G constituted with 18 mls of pH=8.16 buffer was run with each series of experiments using the same storage conditions. Upon completion of the constituted storage time period these samples were filtered to isolate drug product and analyzed using the SS-NMR method to quantify the amount of azithromycin dihydrate present.

[3] = Effects of flavoring components upon azithromycin form G conversion in constituted POS; settings: room temperature, 24-hours
Procedure: Standards of these identified solvent components were then used to investigate the source of the stability problem introduced by these flavorings. The estimated concentration of each solvent in a constituted POS was calculated based on the GC-MS quantification of the specified solvent in the flavorings. Aqueous solutions of each solvent/component were then created at these concentrations and 18 mls of each solvent-solution was used to constitute an unflavored POS formulation I sample using form G. The constituted drug suspensions were stored at room temperature for 24-hours, before being filtered and analyzed by SS-NMR for quantification of azithromycin form change over this interval. POS formulations I and II were constituted with 18 mls of water and stored identically to serve as controls for this experiment.

% Form A ([1]; Formulation I (no flavorings), Day 1): 0%
% Form A ([1]; Formulation I (no flavorings), Day 10, listed as form G, sesquihydrate): did not exhibit conversion
% Form A ([1]; Formulation I (no flavorings), Day 10, sesquihydrate): 0%
% Form A ([1]; Formulation II (Trusil banana), Day 1): 84%
% Form A ([1]; Formulation II (Trusil banana), Day 10): 91%
% Form A ([1]; Formulation III (B&C banana), Day 1): 27%
% Form A ([1]; Formulation III (B&C banana), Day 10): 52%
Δ % Form A ([2]; 820 mg form G + 200 mg Artificial Crème de Vanilla Flavor, constituted 1 day, listed as form G, sesquihydrate): did not exhibit conversion
Δ % Form A ([2]; 820 mg form G + 200 mg Artificial Crème de Vanilla Flavor, constituted 1 day, sesquihydrate): 0%
Δ % Form A ([2]; 820 mg form G + 200 mg Artificial Crème de Vanilla Flavor, constituted 5 days): 4%
Δ % Form A ([2]; 820 mg form G + 200 mg Artificial Crème de Vanilla Flavor, constituted 10 days): 30%
Δ % Form A ([2]; 820 mg form G + 200 mg Artificial Grape Flavor, constituted 1 day): 57%
Δ % Form A ([2]; 820 mg form G + 200 mg Artificial Grape Flavor, constituted 5 days): 75%
Δ % Form A ([2]; 820 mg form G + 200 mg Artificial Grape Flavor, constituted 10 days): AC
Δ % Form A ([2]; 820 mg form G + 200 mg B&C Banana Flavor, constituted 1 day, listed as form G, sesquihydrate): did not exhibit conversion
Δ % Form A ([2]; 820 mg form G + 200 mg B&C Banana Flavor, constituted 1 day, sesquihydrate): 0%
Δ % Form A ([2]; 820 mg form G + 200 mg B&C Banana Flavor, constituted 5 days): 27%
Δ % Form A ([2]; 820 mg form G + 200 mg B&C Banana Flavor, constituted 10 days): AC
Δ % Form A ([2]; 820 mg form G + 200 mg Sucrose, constituted 1 day): 2%
Δ % Form A ([2]; 820 mg form G + 200 mg Sucrose, constituted 5 days): 1%
Δ % Form A ([2]; 820 mg form G + 200 mg Sucrose, constituted 10 days, listed as form G, sesquihydrate): only minimal conversion
Δ % Form A ([2]; 820 mg form G + 200 mg Sucrose, constituted 10 days, sesquihydrate): 6%
Δ % Form A ([2]; 820 mg form G + 200 mg Trusil Banana Flavor, constituted 1 day): 32%
Δ % Form A ([2]; 820 mg form G + 200 mg Trusil Banana Flavor, constituted 5 days): 57%
Δ % Form A ([2]; 820 mg form G + 200 mg Trusil Banana Flavor, constituted 10 days): AC
Δ % Form A ([2]; 820 mg form G + 200 mg Trusil Cherry Flavor, constituted 1 day): 32%
Δ % Form A ([2]; 820 mg form G + 200 mg Trusil Cherry Flavor, constituted 5 days): 75%
Δ % Form A ([2]; 820 mg form G + 200 mg Trusil Cherry Flavor, constituted 10 days): AC
% Form A ([3]; Formulation I constituted with 18 mL 0.002 mg/ml ethyl ester propanoic acid): 0%
% Form A ([3]; Formulation I constituted with 18 mL 0.025 mg/ml 3-methyl-1-butanol): 0%
% Form A ([3]; Formulation I constituted with 18 mL 0.043 mg/ml isoamyl isovalerate): 13%
% Form A ([3]; Formulation I constituted with 18 mL 0.144 mg/ml 2-methyl-butyl acetate): 0%
% Form A ([3]; Formulation I constituted with 18 mL 0.197 mg/ml ethyl acetate): 0%
% Form A ([3]; Formulation I constituted with 18 mL 0.587 mg/ml benzaldehyde): 0%
% Form A ([3]; Formulation I constituted with 18 mL 0.785 mg/ml 3-methyl-butyl acetate + 0.562 mg/ml benzaldehyde): 11%
% Form A ([3]; Formulation I constituted with 18 mL 0.815 mg/ml 3-methyl-butyl acetate): 2%
% Form A ([3]; Formulation I constituted with 18 mL Water, listed as form G, sesquihydrate): no conversion
% Form A ([3]; Formulation I constituted with 18 mL Water, sesquihydrate): 0%
% Form A ([3]; Formulation II constituted with 18 mL Water, listed as form G, sesquihydrate): approximately 71%
% Form A ([3]; Formulation II constituted with 18 mL Water, sesquihydrate): 71%
SMILES: CC[C@H]1OC(=O)[C@H](C)[C@@H](O[C@H]2C[C@@](C)(OC)[C@@H](O)[C@H](C)O2)[C@H](C)[C@@H](O[C@@H]2O[C@H](C)C[C@H](N(C)C)[C@H]2O)[C@](C)(O)C[C@@H](C)CN(C)[C@H](C)[C@@H](O)[C@]1(C)O [Form G, azithromycin sesquihydrate]
